Drawing on patent US7511145B2 (Genelabs Technologies, Inc., priority 2003, dated 2009), this text covers inhibition for eleven compounds.

This assay deals with T1, HCV-NS5b (Hepatitis C virus genotype 1b, UniProt Q9WMX2).
T1 construct: (His)6 (C); made in house; host or cells: XL-1 cells (E. coli), IPTG-inducible plasmid, nickel-NTA purification
Kind of assay: HCV-NS5b enzyme assay (incorporation of radiolabeled UTP). The class given is biochemical. As to conditions: for inhibition at 33 µM: enzyme inhibition at compound concentration of 33 uM; for inhibition at 100 µM: read-out: % inh@100, enzyme inhibition at compound concentration of 100 uM. The essentials: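 His6-tagged NS5b lacking the C-terminal 21 residues, expressed in XL-1 and Ni-NTA purified. Reaction at pH 7.5 with 5 mM MgCl2, 10 μM each NTP including [3H]-UTP and biotinylated HCV heteropolymeric template, 2 h at 37° C; SPA read-out; % inhibition at 100 and 33 uM versus no-compound control, background subtracted.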

Turning to `O=C(O)c1ccc2c(c1)nc(-c1ccc3nc(-c4ccc5c(c4)CCO5)ccc3c1)n2C1CCCCC1` [Compound 478, 1-cyclohexyl-2-[2-(2,3-dihydro-benzofuran-5-yl)-quinolin-6-yl]-1H-benzoimidazole-5-carboxylic acid], the inhibition at 33 µM stood at 95.8% and the inhibition at 100 µM was 97.2%.
For `O=C(O)c1ccc2c(c1)nc(-c1ccc3nc(-c4cc(-c5ccc(Cl)c(Cl)c5)no4)ccc3c1)n2C1CCCCC1` [Compound 479, 1-cyclohexyl-2-{2-[3-(3,4-dichloro-phenyl)-isoxazol-5-yl]-quinolin-6-yl}-1H-benzoimidazole-5-carboxylic acid] the same measures were 99.6% and 102%.
For `Nc1cc(-c2ccccc2)sc1-c1ccc2cc(-c3nc4cc(C(=O)O)ccc4n3C3CCCCC3)ccc2n1` [Compound 480, 2-[2-(3-amino-5-phenyl-thiophen-2-yl)-quinolin-6-yl]-1-cyclohexyl-1H-benzoimidazole-5-carboxylic acid] the same measures were 101% and 104%.
With `CN(C)c1cc(-c2ccccc2)nc2ccc(-c3nc4cc(C(=O)O)ccc4n3C3CCCCC3)cc12` [Compound 481, 1-cyclohexyl-2-(4-dimethylamino-2-phenyl-quinolin-6-yl)-1H-benzoimidazole-5-carboxylic acid], the inhibition at 33 µM was found to be 76.5% and the inhibition at 100 µM was 96.7%.
As to `O=C(O)c1ccc2c(c1)nc(-c1ccc3nc(-c4cccc(Br)c4)ccc3c1)n2C1CCCCC1` [Compound 482, 2-[2-(3-bromo-phenyl)-quinolin-6-yl]-1-cyclohexyl-1H-benzoimidazole-5-carboxylic acid], the inhibition at 33 µM was 100% and the inhibition at 100 µM came to 101%.
The like results for `O=C(O)c1ccc2c(c1)nc(-c1ccc3nc(-c4cccc(-c5ccc(Cl)cc5)c4)ccc3c1)n2C1CCCCC1` [Compound 483, 2-[2-(4′-chloro-biphenyl-3-yl)-quinolin-6-yl]-1-cyclohexyl-1H-benzoimidazole-5-carboxylic acid] were, in that order, 102% and 99.4%.
Take `COc1ccc(-c2cnc(OC)nc2OC)c(-c2ccc3cc(-c4nc5cc(C(=O)O)ccc5n4C4CCCCC4)ccc3n2)c1` [Compound 484, 1-cyclohexyl-2-{2-[2-(2,4-dimethoxy-pyrimidin-5-yl)-5-methoxy-phenyl]-quinolin-6-yl}-1H-benzoimidazole-5-carboxylic acid]: the inhibition at 33 µM came to 99.6% and the inhibition at 100 µM worked out at 98.3%.
For `Cc1cc(-c2ccccc2-c2ccc(Cl)cc2)nc2ccc(-c3nc4cc(C(=O)O)ccc4n3C3CCCCC3)cc12` [Compound 485, 2-[2-(4′-Chloro-biphen-2-yl)-4-methyl-quinolin-6-yl]-1-cyclohexyl-1H-benzoimidazole-5-carboxylic acid] the same measures were 98.6% and 99.5%.
With `COc1cccc(-c2ccc3cc(-c4nc5cc(C(=O)O)ccc5n4C4CCCCC4)ccc3n2)c1` [Compound 486, 1-Cyclohexyl-2-[2-(3-methoxy-phenyl)-quinolin-6-yl]-1H-benzoimidazole-5-carboxylic acid], the inhibition at 33 µM amounted to 93.5% and the inhibition at 100 µM worked out at 97.9%.
The like results for `O=C(O)c1ccc2c(c1)nc(-c1ccc3nc(-c4cc(O)ccc4-c4ccccc4)ccc3c1)n2C1CCCCC1` [Compound 487, 1-Cyclohexyl-2-[2-(4-hydroxy-biphen-2-yl)-quinolin-6-yl]-1H-benzoimidazole-5-carboxylic acid] were, in that order, 102% and 101%.
Turning to `O=C(O)c1ccc2c(c1)nc(-c1ccc3nc(-c4ccc(N5CCNCC5)cc4)ccc3c1)n2C1CCCCC1` [Compound 488, 1-cyclohexyl-2-[2-(4-piperazin-1-yl-phenyl)-quinolin-6-yl]-1H-benzoimidazole-5-carboxylic acid], the inhibition at 33 µM is 91.8% and the inhibition at 100 µM turned out to be 97.2%.
